Source: patent US20230357240A1, “NOVEL N-HETEROCYCLIC BET BROMODOMAIN INHIBITOR, AND PREPARATION METHOD THEREOF AND MEDICAL USE THEREOF” (Chengdu Easton Biopharmaceuticals Co., Ltd., priority 2020, published 2023)
pIC50: −log10 of the molar value. Where two headings read alike, the source gives them in different places. Blank lines part the entries; values can stand above or below the compound they belong to.

How the values were obtained:
MV4-11 cell = MV4-11 cell proliferation experiment (CCK-8 cell viability); format: cell-based; conditions: Homo sapiens, MV4-11 cells, 72-hour culture
Experimental: EXAMPLE 9 Cell Experiment (MV4-11 Cell Proliferation Experiment)
Determination of Cell Viability with CCK-8 Reagent
(1) MV4-11 cell suspension was pipetted from a culture flask into a 15 mL centrifuge tube, and the cell suspension was centrifuged at 1000 rpm for 4 minutes.
(2) A supernatant in the centrifuge tube was discarded, and an appropriate amount of fresh complete medium (IMDM+10% FBS+1% P/S) was added to resuspend the cells. 20 μL of cell suspension was collected, 20 μL of trypan blue was added, and CounterStar was used for counting.
(3) A required cell suspension volume and complete medium volume were calculated according to viable cell density and the required number of plated cells. MV4-11 cells were plated at a density of 1*10^4 cells/well in 100 μL/well.
(4) 100 μL of the above cell suspension was pipetted into a 96-well plate by using an electric pipette. 150 μL of complete medium was added to blank control wells. PBS was added to peripheral wells of the 96-well plate, to avoid liquid evaporation. The 96-well plate was cultured overnight in an incubator.
Day 2: Compound Preparation:
(1) The compound of the present application dissolved in DMSO and the positive control substance ABBV-744 were fetched, and subjected to serial dilution (dilution in column A, column B, . . . , column J sequentially from left to right in a 96-well PCR plate).
An initial concentration of the solution in column A is 10 mM;
Column B: 2 μL of the solution in column A was diluted with 8 μL of DMSO to obtain a final concentration of 2000 μM;
Column C: 2 μL of the solution in column B was diluted with 8 μL of DMSO to obtain a final concentration of 400 μM;
Column D: 2 μL of the solution in column C was diluted with 8 μL of DMSO to obtain a final concentration of 80 μM;
Column E: 2 μL of the solution in column D was diluted with 8 μL of DMSO to obtain a final concentration of 16 μM;
Column F: 2 μL of the solution in column E was diluted with 8 μL of DMSO to obtain a final concentration of 3.2 μM;
Column G: 2 μL of the solution in column F was diluted with 8 μL of DMSO to obtain a final concentration of 0.64 μM;
Column H: 2 μL of the solution in column G was diluted with 8 μL of DMSO to obtain a final concentration of 0.128 μM;
Column I: 2 μL of the solution in column H was diluted with 8 μL of DMSO to obtain a final concentration of 0.0256 μM; and
Column J: 2 μL of the solution in column I was diluted with 8 μL of DMSO to obtain a final concentration of 0.00512 μM.
The suspension was centrifuged for 1 minute at 1000 rpm by using a low-speed centrifuge.
(2) 3×Compound Preparation: (Diluted in a 96-Well Cell Culture Plate)
3 μL of each of the solutions in columns B to J was pipetted into […] of complete medium by a 10 μL manual pipette to obtain 3×compound solutions with a final concentration of 30000, 6000, 1200, 240, 48, 9.6, 1.92, 0.384 and 0.0768 nM, respectively; and 3 μL of DMSO was pipetted into […] of complete medium as a control. The resulting 96-well cell culture plate was put on an oscillator to be oscillated at 500 rpm for 30 minutes.
(1) The prepared 3×compound solutions with the above concentrations were each pipetted by a manual pipette with its volume set to 50 μL into a corresponding well of the 96-well plate after overnight culture on the first day, and the total culture volume of each well was 150 μL. The final concentrations of the compounds in the 96-well plate were 10 μM, 2 μM, 400 nM, 80 nM, 16 nM, 3.2 nM, 0.64 nM, 0.128 nM and 0.0256 nM, respectively. The resulting 96-well plate was put on an oscillator to be oscillated at 500 rpm for 10 minutes.
(2) The 96-well plate as prepared was put in a CO2 incubator for 72-hour culture.
(1) CCK-8 test solution was pipetted into the 96-well cell culture plate in an amount of 15 μL/well by a pipette with a volume set to 15 μL.
(2) The 96-well plate was put in the CO2 incubator for 4-hour culture. […]

MV4-11 xenograft tumor = assay: In vivo efficacy test, MV4-11 xenograft tumor model in mice; conditions: NOD-SCID mice, 5 mg/kg qd gavage, 14 days
Description: EXAMPLE 11 In Vivo Efficacy Test of the Compound of the Present Application
Objective: To test the inhibitory effect of the test compound on the growth of xenograft tumor in nude mice with MV4-11 leukemia.
Method: NOD-SCID mice were subcutaneously inoculated with MV4-11 cells to establish an MV4-11 xenograft tumor model in mice. 16 days after inoculation (d16), average tumor volume was about 210 mm^3. According to the tumor volumes, the tumor-bearing mice were grouped in a random block method, with 6 mice in each group. The groups included a solvent control group, an ABBV-744 control group, and a test sample group, the dosage was 5 mg/kg mouse body weight, and the dose volume was 10 mL/kg mouse body weight, once a day. Each group was gavage administered for 14 consecutive days, and the solvent control group was gavage administered with a blank solvent (20% […] solution). Tumor volumes were measured twice weekly after administration of the test drug. The animals were euthanized after the test.

hERG ion channel = molecular target: T1, hERG ion channel (Homo sapiens, UniProt Q12809); assay: hERG inhibition test, whole-cell patch clamp in HEK293 cells stably expressing the hERG ion channel; format: cell-based; conditions: tail current, Hill equation fit
T1 construct: expressed in transfected cells; host or cells: HEK293 cells stably expressing hERG
Experimental: (§1) An hERG current was recorded by the whole-cell patch clamp technique. A suspension of HEK293 cells stably expressing the hERG ion channel was added to a 35 mm culture dish, and the culture dish was put on a stage of an inverted microscope. […] The pulse program was repeated every 15 seconds throughout the whole test. After the current became stable, the administration method of continuous extracellular perfusion from low concentration to high concentration was used, and the perfusion started from low concentration and continued until the drug effect was stable, and then the perfusion of the next concentration was performed.
(§2) After the test, stimulus release and signal acquisition were carried out through PatchMaster software. Graphpad Prism 8.0 was used for further data analysis and curve fitting. Effects of each compound at different concentrations were represented with an inhibition rate of the tail current. Inhibition rate=(peak tail current before administration—peak tail current after administration)/peak tail current before administration x 100%. Half-maximal inhibitory concentration IC50 of the test samples was obtained by the fitting analysis with Hill equation.

hERG = molecular target: T2, hERG (Homo sapiens, UniProt Q12809); assay: as above; format: cell-based; conditions: human, HEK293 cells stably expressing the hERG ion channel
T2 construct: expressed in transfected cells; host or cells: HEK293 cells stably expressing hERG
Experimental: as §1, §2

[1] = read-out: Average hERG inhibition rate
[2] = read-out: hERG Inhibition rate, Cell 1
[3] = read-out: hERG Inhibition rate, Cell 2

T2 sequence (Q12809 whole entry): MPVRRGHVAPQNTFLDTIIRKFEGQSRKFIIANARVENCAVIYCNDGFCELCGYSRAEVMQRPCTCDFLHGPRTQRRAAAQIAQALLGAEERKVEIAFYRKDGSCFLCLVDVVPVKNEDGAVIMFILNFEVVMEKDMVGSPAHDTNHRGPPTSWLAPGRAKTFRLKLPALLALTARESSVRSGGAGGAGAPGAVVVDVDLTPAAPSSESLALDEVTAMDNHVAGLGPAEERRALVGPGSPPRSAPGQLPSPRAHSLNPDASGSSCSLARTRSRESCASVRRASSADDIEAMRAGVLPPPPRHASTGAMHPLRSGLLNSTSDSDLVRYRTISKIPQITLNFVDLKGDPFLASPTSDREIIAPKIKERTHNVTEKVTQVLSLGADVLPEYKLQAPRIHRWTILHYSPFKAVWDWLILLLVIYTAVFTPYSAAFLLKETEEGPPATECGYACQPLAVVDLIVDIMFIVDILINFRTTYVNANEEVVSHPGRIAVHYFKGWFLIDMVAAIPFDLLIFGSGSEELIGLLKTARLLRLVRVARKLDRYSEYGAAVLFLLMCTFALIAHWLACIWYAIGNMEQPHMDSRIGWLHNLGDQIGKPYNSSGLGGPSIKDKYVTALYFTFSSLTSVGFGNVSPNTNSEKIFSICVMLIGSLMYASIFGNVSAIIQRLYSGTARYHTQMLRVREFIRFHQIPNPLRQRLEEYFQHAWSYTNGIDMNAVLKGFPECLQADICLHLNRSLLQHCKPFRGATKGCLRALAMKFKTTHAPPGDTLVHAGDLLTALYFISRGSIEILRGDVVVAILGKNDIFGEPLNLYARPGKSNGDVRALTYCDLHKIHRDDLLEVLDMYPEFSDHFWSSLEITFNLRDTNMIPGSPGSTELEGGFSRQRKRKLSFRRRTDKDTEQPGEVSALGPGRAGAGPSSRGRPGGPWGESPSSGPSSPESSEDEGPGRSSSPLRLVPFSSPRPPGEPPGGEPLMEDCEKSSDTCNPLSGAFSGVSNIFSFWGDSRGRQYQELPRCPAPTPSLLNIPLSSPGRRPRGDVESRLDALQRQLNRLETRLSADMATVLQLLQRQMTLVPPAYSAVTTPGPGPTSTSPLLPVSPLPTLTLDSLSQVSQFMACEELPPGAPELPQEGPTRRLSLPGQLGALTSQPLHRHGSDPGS
T1 sequence (Q12809 whole entry): as above

- pIC50 (MV4-11 cell): 8.20
Structure (SMILES): CCNC(=O)c1cc2c(-c3sc(C(C)(C)O)cc3N3CCc4cc(F)ccc43)cn(C)c(=O)c2[nH]1 [Compound 4, N-ethyl-4-(3-(5-fluoroindolin-1-yl)-5-(2-hydroxypropyl-2-yl)thiophen-2-yl)-6-methyl-7-oxo-6,7-dihydro-1H-pyrrolo[2,3-c]pyridine-2-carboxamide]

Structure (SMILES): CCNC(=O)c1cc2c(-c3cc(C(C)(C)O)ccc3Oc3c(C)cc(F)cc3C)cn(C)c(=O)c2[nH]1 [ABBV-744, reference compound]
- Relative tumor proliferation rate T/C (MV4-11 xenograft tumor): 45.98%
- pIC50 (hERG ion channel): 5.51
- inhibition at 0.37 µM (hERG; [1]): 5.35%
- inhibition at 0.37 µM (hERG; [2]): 8.24%
- inhibition at 0.37 µM (hERG; [3]): 2.46%
- inhibition at 1.11 µM (hERG; [1]): 17.4%
- inhibition at 1.11 µM (hERG; [2]): 23%
- inhibition at 1.11 µM (hERG; [3]): 11.8%
- inhibition at 3.33 µM (hERG; [1]): 54.7%
- inhibition at 3.33 µM (hERG; [2]): 57.7%
- inhibition at 3.33 µM (hERG; [3]): 51.7%
- inhibition at 10 µM (hERG; [1]): 87.6%
- inhibition at 10 µM (hERG; [2]): 87.9%
- inhibition at 10 µM (hERG; [3]): 87.3%
- inhibition at 30 µM (hERG; [1]): 99.1%
- inhibition at 30 µM (hERG; [2]): 99.4%
- inhibition at 30 µM (hERG; [3]): 98.7%
- pIC50 (MV4-11 cell): 8.14

- pIC50 (MV4-11 cell): 7.92
Structure (SMILES): CCNC(=O)c1cc2c(-c3sc(C(C)(C)O)cc3N3CCc4cc(C(F)(F)F)ccc43)cn(C)c(=O)c2[nH]1 [Compound 5, N-ethyl-4-(5-(2-hydroxypropyl-2-yl)-3-(5-trifluoromethylindolin-1-yl)thiophen-2-y I)-6-methyl-7-oxo-6,7-dihydro-1H-pyrrolo[2,3-c]pyridine-2-carboxamide]

- pIC50 (MV4-11 cell): 8.09
Structure (SMILES): CCNC(=O)c1cc2c(-c3sc(C(C)(C)O)cc3N3CCCc4cc(F)ccc43)cn(C)c(=O)c2[nH]1 [Compound 6, N-ethyl-4-(5-(2-hydroxypropyl-2-yl)-3-(6-fluoro-3,4-dihydroquinolin-1(2H)-yl)thiophen-2-yl)-6-methyl-7-oxo-6,7-dihydro-1H-pyrrolo[2,3-c]pyridine-2-carboxamide]

- pIC50 (MV4-11 cell): 7.40
Structure (SMILES): CCNC(=O)c1cc2c(-c3sc(C(C)(C)O)cc3N3CCc4cccc(C)c43)cn(C)c(=O)c2[nH]1 [Compound 3, N-ethyl-4-(5-(2-hydroxypropyl-2-yl)-3-(7-methylindolin-1-yl)thiophen-2-yl)-6-met hyl-7-oxo-6,7-dihydro-1H-pyrrolo[2,3-c]pyridine-2-carboxamide]

- pIC50 (MV4-11 cell): 7.62
Structure (SMILES): CCNC(=O)c1cc2c(-c3sc(C(C)(C)O)cc3N3CCc4cccc(F)c43)cn(C)c(=O)c2[nH]1 [Compound 2, N-ethyl-4-(3-(7-fluoroindolin-1-yl)-5-(2-hydroxypropyl-2-yl)thiophen-2-yl)-6-methyl-7-oxo-6,7-dihydro-1H-pyrrolo[2,3-c]pyridine-2-carboxamide]

- pIC50 (MV4-11 cell): 7.76
Structure (SMILES): CCNC(=O)c1cc2c(-c3sc(C(C)(C)O)cc3N3CCc4cccc(C(F)(F)F)c43)cn(C)c(=O)c2[nH]1 [Compound 7, N-ethyl-4-(5-(2-hydroxypropyl-2-yl)-3-(7-(trifluoromethyl)indolin-1-yl)thiophen-2-yl)-6-methyl-7-oxo-6,7-dihydro-1H-pyrrolo[2,3-c]pyridine-2-carboxamide]
